# How the values were obtained:
# Assay type in all cases: protein assay
# [1] = target: T1, S-adenosylmethionine synthetase (MAT 1 and MAT 2) (Rattus norvegicus, UniProt P13444+P18298); experiment: Inhibition constant of compound with Novikoff ascitic hepatoma (M-T) form of rat methionine adenosyltransferase when ATP was used as variable substrate;Competitive type of inhibition
# [2] = target: T1, S-adenosylmethionine synthetase (MAT 1 and MAT 2); experiment: Inhibition constant of compound with kidney (M-2) form of rat methionine adenosyltransferase when ATP was used as variable substrate;Competitive type of inhibition
# [3] = target: T1, S-adenosylmethionine synthetase (MAT 1 and MAT 2); experiment: Inhibition constant of compound with kidney (M-2) form of rat methionine adenosyltransferase when methionine was used as variable substrate;Simple non-competitive type of inhibition
# [4] = target: T1, S-adenosylmethionine synthetase (MAT 1 and MAT 2); experiment: Inhibition constant of compound with Novikoff ascitic hepatoma (M-T) form of rat methionine adenosyltransferase when methionine was used as variable substrate;Simple non-competitive type of inhibition
Compound,Ki [1] [µM],Ki [2] [µM],Ki [3] [µM],Ki [4] [µM]
Nc1ncnc2c1ncn2[C@@H]1O[C@H]([C@@H](CNP(=O)(O)OP(=O)(O)OP(=O)(O)O)SCCC(N)C(=O)O)[C@@H](O)[C@H]1O (some centres undefined),20,,,
"Nc1ncnc2c1ncn2[C@@H]1O[C@H](C(CP(=O)(O)OP(=O)(O)OP(=O)(O)O)SCCC(N)C(=O)O)[C@@H](O)[C@H]1O (single isomer, unassigned; isomer B)",,180,,
"Nc1ncnc2c1ncn2[C@@H]1O[C@H](C(CP(=O)(O)OP(=O)(O)OP(=O)(O)O)SCCC(N)C(=O)O)[C@@H](O)[C@H]1O (single isomer, unassigned; isomer A)",,39,,
Nc1ncnc2c1ncn2C1O[C@H](CCNP(=O)(O)OP(=O)(O)OP(=O)(O)O)[C@@H](O)[C@H]1O (some centres undefined),,14,580,
Nc1ncnc2c1ncn2C1O[C@H]([C@H](CNP(=O)(O)OP(=O)(O)OP(=O)(O)O)SCCC(N)C(=O)O)[C@@H](O)[C@H]1O (some centres undefined),0.27,0.36,3,2.3

# Reference: ChEMBL document CHEMBL1123742, “Isozyme-specific enzyme inhibitors. 13. S-[5'(R)-[(N-triphosphoamino)methyl]adenosyl]-L-homocysteine, a potent inhibitor of rat methionine adenosyltransferases” (J Med Chem, 1987)
